This note sets out measurements from patent US10501461B2, “Tyrosine amide derivatives as Rho-kinase inhibitors” (CHIESI FARMACEUTICI S.P.A., priority 2017, dated 2019).

Some results are limits rather than exact numbers.

In one assay the target is Rho kinase 1 (ROCK-I) (Homo sapiens, UniProt Q13464). Kind of assay: In vitro Rho kinase inhibitory activity assay (ADP-Glo), Rho kinase 1. The class given is biochemical. The settings on record: 10 μM ATP, 25° C., expressed as range of activity. In outline:
(§1)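 First, compound was incubated with either Rho kinase isoform for 30 mins at 25 °C; next, ATP was added to 10 μM final with 2.5 μM Myelin Basic Protein substrate; after 1 hour, ADP formed was detected by ADP-Glo luminescence. Dose-response data yielded IC50, converted to Ki using Cheng-Prusoff.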
Background: ADP-Glo turns the ADP formed in a reaction into a luminescent signal.

For the next assay, the target named is Rho kinase 2 (ROCK-II) (Homo sapiens, UniProt O75116). Kind of assay: In vitro Rho kinase inhibitory activity assay (ADP-Glo), Rho kinase 2. It counts as biochemical. The settings on record: 10 μM ATP, 25° C., expressed as range of activity. A digest of the protocol:
as §1

In general, Ki refers to the equilibrium dissociation constant of an inhibitor or competing ligand from its target. High values mean lower affinity, low ones higher affinity.

Rho kinase 1 (ROCK-I), sequence (Q13464 whole entry, canonical isoform): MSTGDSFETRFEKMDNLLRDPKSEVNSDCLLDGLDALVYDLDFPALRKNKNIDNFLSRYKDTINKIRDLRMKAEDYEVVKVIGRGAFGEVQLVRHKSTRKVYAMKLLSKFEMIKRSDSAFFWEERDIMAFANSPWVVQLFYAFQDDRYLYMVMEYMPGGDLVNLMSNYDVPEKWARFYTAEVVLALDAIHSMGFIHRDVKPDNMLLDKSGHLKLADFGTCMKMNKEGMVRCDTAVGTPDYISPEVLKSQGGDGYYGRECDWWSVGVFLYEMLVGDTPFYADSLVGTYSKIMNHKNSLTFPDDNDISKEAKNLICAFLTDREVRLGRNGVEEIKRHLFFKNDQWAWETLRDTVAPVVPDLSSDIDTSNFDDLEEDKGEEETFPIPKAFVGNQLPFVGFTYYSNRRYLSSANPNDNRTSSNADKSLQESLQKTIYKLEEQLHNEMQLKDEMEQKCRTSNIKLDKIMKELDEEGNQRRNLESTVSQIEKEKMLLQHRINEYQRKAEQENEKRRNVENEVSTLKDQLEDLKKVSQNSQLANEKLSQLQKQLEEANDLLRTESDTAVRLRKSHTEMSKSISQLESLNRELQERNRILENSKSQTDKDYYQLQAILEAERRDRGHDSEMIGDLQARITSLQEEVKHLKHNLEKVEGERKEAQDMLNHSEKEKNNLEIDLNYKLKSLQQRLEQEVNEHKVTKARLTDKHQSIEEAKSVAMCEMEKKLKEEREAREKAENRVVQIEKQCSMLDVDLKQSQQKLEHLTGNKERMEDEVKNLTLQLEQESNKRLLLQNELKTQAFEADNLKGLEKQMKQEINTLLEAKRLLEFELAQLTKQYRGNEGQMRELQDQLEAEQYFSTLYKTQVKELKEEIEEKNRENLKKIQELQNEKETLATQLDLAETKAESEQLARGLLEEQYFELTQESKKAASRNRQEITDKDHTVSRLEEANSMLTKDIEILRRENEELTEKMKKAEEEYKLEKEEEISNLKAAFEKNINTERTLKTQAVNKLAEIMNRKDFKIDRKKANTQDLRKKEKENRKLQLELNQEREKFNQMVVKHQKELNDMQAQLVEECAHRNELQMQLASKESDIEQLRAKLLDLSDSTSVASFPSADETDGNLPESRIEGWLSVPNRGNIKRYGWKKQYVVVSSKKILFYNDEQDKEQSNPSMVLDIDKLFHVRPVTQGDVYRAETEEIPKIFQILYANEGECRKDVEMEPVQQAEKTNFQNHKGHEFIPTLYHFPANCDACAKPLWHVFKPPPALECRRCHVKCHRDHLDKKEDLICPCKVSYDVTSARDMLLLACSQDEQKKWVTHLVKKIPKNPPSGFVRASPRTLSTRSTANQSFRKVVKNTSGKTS
Rho kinase 2 (ROCK-II), sequence (O75116 whole entry): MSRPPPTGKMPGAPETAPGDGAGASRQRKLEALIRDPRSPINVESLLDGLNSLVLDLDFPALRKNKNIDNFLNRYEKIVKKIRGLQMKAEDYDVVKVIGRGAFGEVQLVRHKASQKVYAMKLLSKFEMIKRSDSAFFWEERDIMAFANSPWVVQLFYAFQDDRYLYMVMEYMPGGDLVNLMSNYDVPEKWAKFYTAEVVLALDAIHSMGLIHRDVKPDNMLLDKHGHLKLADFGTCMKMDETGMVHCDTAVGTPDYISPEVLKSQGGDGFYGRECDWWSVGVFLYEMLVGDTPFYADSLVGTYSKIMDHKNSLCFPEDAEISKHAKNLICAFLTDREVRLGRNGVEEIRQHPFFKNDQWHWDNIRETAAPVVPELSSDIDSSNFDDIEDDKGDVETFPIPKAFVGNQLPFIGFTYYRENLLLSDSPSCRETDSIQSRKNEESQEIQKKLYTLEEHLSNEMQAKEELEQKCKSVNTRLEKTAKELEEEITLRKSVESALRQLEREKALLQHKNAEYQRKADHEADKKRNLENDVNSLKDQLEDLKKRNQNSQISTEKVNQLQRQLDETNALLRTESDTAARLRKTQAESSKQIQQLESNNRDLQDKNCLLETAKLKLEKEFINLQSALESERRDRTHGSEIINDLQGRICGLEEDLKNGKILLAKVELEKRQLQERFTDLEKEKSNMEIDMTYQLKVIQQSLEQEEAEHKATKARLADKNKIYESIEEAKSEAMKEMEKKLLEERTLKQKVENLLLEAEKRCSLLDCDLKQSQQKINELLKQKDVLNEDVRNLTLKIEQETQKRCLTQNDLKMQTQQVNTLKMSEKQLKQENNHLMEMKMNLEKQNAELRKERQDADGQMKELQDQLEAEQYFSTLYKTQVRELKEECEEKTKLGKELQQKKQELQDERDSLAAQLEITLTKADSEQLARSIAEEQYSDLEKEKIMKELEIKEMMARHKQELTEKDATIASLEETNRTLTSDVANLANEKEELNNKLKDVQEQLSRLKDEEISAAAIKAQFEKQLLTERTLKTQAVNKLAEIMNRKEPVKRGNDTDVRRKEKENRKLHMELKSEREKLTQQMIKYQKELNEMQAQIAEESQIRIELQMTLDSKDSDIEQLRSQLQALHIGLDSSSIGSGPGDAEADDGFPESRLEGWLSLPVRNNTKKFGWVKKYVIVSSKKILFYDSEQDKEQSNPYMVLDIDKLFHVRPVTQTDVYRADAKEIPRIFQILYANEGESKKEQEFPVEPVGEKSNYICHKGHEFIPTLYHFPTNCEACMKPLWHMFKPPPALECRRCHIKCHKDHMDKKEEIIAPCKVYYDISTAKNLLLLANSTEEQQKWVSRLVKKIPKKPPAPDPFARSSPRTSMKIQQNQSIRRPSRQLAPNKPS

Turning to `NC(Cc1ccc(Oc2ccnc3[nH]ccc23)cc1)C(=O)Nc1ccc(C(F)(F)F)cc1` (single isomer, unassigned) [Example 91B, 3-(4-((1H-pyrrolo[2,3-b]pyridin-4-yl)oxy)phenyl)-2-amino-N-(4-(trifluoromethyl)phenyl)propanamide], the Ki on Rho kinase 1 (ROCK-I) and at Rho kinase 2 (ROCK-II) was 3 to 30 nM in each case.
`N[C@@H](Cc1ccc(Oc2ncnc3[nH]ccc23)cc1)C(=O)NC1CCCCC1` [Example 225, (S)-3-(4-((7H-pyrrolo[2,3-d]pyrimidin-4-yl)oxy)phenyl)-2-amino-N-cyclohexylpropanamide]: the Ki on Rho kinase 1 (ROCK-I) and on Rho kinase 2 (ROCK-II) was over 30 nM in each case.
With `Cc1c[nH]c2nccc(Oc3ccc(C[C@H](N)C(=O)NCC4CN(C)C4)cc3F)c12` [Example 47, (S)-2-amino-3-(3-fluoro-4-((3-methyl-1H-pyrrolo[2,3-b]pyridin-4-yl)oxy)phenyl)-N-((1-methylazetidin-3-yl)methyl)propanamide], the Ki on Rho kinase 1 (ROCK-I) and on Rho kinase 2 (ROCK-II) was under 3 nM each time.
With `Cc1c[nH]c2ncnc(Oc3ccc(C[C@H](N)C(=O)NC4CCOCC4)cc3F)c12` [Example 125, (S)-2-amino-3-(3-fluoro-4-((5-methyl-7H-pyrrolo[2,3-d]pyrimidin-4-yl)oxy)phenyl)-N-(tetrahydro-2H-pyran-4-yl)propanamide], the Ki at Rho kinase 1 (ROCK-I) and on Rho kinase 2 (ROCK-II) was 3 to 30 nM each time.
`Cc1c[nH]c2nccc(Oc3ccc(C[C@H](N)C(=O)Nc4ccccc4)cc3F)c12` [Example 145, (S)-2-amino-3-(3-fluoro-4-((3-methyl-1H-pyrrolo[2,3-b]pyridin-4-yl)oxy)phenyl)-N-phenylpropanamide]: the Ki on Rho kinase 1 (ROCK-I) and at Rho kinase 2 (ROCK-II) was under 3 nM each time.
As to `N[C@@H](Cc1ccc(Oc2ccnc3[nH]ccc23)cc1)C(=O)Nc1ccc(Cl)nc1` [Example 94, (S)-3-(4-((1H-pyrrolo[2,3-b]pyridin-4-yl)oxy)phenyl)-2-amino-N-(6-chloropyridin-3-yl)propanamide], the Ki on Rho kinase 1 (ROCK-I) and at Rho kinase 2 (ROCK-II) was under 3 nM in each case.
`Cc1c[nH]c2nccc(Oc3ccc(C[C@H](N)C(=O)N4CCN(C(=O)C5CCN(C)CC5)CC4)cc3F)c12` [Example 171, (S)-2-amino-3-(3-fluoro-4-((3-methyl-1H-pyrrolo[2,3-b]pyridin-4-yl)oxy)phenyl)-1-(4-(1-methylpiperidine-4-carbonyl)piperazin-1-yl)propan-1-one]: the Ki at Rho kinase 1 (ROCK-I) and on Rho kinase 2 (ROCK-II) was 3 to 30 nM each time.
For `Cc1c[nH]c2nccc(Oc3ccc(C[C@H](N)C(=O)N4CCC(Oc5cccnc5)CC4)cc3F)c12` [Example 11, (S)-2-amino-3-(3-fluoro-4-((3-methyl-1H-pyrrolo[2,3-b]pyridin-4-yl)oxy)phenyl)-1-(4-(pyridin-3-yloxy)piperidin-1-yl)propan-1-one], the Ki at Rho kinase 1 (ROCK-I) and at Rho kinase 2 (ROCK-II) was under 3 nM in each case.
With `COCCN1CCN(C(=O)C(N)Cc2ccc(Oc3ccnc4[nH]cc(C)c34)c(F)c2)CC1` (stereo not shown) [Example 19, 2-amino-3-(3-fluoro-4-((3-methyl-1H-pyrrolo[2,3-b]pyridin-4-yl)oxy)phenyl)-1-(4-(2-methoxyethyl)piperazin-1-yl)propan-1-one], the Ki at Rho kinase 1 (ROCK-I) and on Rho kinase 2 (ROCK-II) was under 3 nM throughout.
Turning to `Cc1c[nH]c2nccc(Oc3ccc(C[C@H](N)C(=O)N4CCN(CC5CCN(S(C)(=O)=O)CC5)CC4)cc3F)c12` [Example 161, (S)-2-amino-3-(3-fluoro-4-((3-methyl-1H-pyrrolo[2,3-b]pyridin-4-yl)oxy)phenyl)-1-(4-((1-(methylsulfonyl)piperidin-4-yl)methyl)piperazin-1-yl)propan-1-one], the Ki on Rho kinase 1 (ROCK-I) and at Rho kinase 2 (ROCK-II) was under 3 nM each time.
For the compound `Cc1c[nH]c2ncnc(Oc3ccc(C[C@H](N)C(=O)N4CCC(Oc5cccnc5)CC4)cc3F)c12` [Example 126, (S)-2-amino-3-(3-fluoro-4-((5-methyl-7H-pyrrolo[2,3-d]pyrimidin-4-yl)oxy)phenyl)-1-(4-(pyridin-3-yloxy)piperidin-1-yl)propan-1-one], the Ki on Rho kinase 1 (ROCK-I) and on Rho kinase 2 (ROCK-II) was 3 to 30 nM each time.
Turning to `N[C@@H](Cc1ccc(Oc2ccnc3[nH]cc(-c4cccnc4)c23)cc1)C(=O)N1CCN(Cc2ccccc2)CC1` [Example 194, (S)-2-amino-1-(4-benzylpiperazin-1-yl)-3-(4-((3-(pyridin-3-yl)-1H-pyrrolo[2,3-b]pyridin-4-yl)oxy)phenyl)propan-1-one], the Ki on Rho kinase 1 (ROCK-I) and at Rho kinase 2 (ROCK-II) was under 3 nM throughout.
With `N[C@@H](Cc1ccc(Oc2ccnc3[nH]ccc23)cc1)C(=O)NC1CCOCC1` [Example 99, (S)-3-(4-((1H-pyrrolo[2,3-b]pyridin-4-yl)oxy)phenyl)-2-amino-N-(tetrahydro-2H-pyran-4-yl)propanamide], the Ki on Rho kinase 1 (ROCK-I) and on Rho kinase 2 (ROCK-II) was 3 to 30 nM throughout.
With `Cc1c[nH]c2nccc(Oc3ccc(CC(N)C(=O)N4CCN(Cc5ccccc5)CC4)cc3F)c12` (single isomer, unassigned) [Example 132B, 2-amino-1-(4-benzylpiperazin-1-yl)-3-(3-fluoro-4-((3-methyl-1H-pyrrolo[2,3-b]pyridin-4-yl)oxy)phenyl)propan-1-one], the Ki on Rho kinase 1 (ROCK-I) is 3 to 30 nM; on Rho kinase 2 (ROCK-II), under 3 nM.
In the case of `N[C@@H](Cc1ccc(Oc2ccnc3[nH]ccc23)cc1)C(=O)NC1CCCCC1` [Example 111, (S)-3-(4-((1H-pyrrolo[2,3-b]pyridin-4-yl)oxy)phenyl)-2-amino-N-cyclohexylpropanamide], the Ki on Rho kinase 1 (ROCK-I) is 3 to 30 nM; at Rho kinase 2 (ROCK-II) it was under 3 nM.
On the same counts, the results for `COCCCNC(=O)C(N)Cc1ccc(Oc2ccnc3[nH]cc(C)c23)c(F)c1` (stereo not shown) [Example 68, 2-amino-3-(3-fluoro-4-((3-methyl-1H-pyrrolo[2,3-b]pyridin-4-yl)oxy)phenyl)-N-(3-methoxypropyl)propanamide] are under 3 nM and under 3 nM.
On the same counts, the results for `Cc1c[nH]c2nccc(Oc3ccc(C[C@H](N)C(=O)NCCc4ccncc4)cc3)c12` [Example 89, (S)-2-amino-3-(4-((3-methyl-1H-pyrrolo[2,3-b]pyridin-4-yl)oxy)phenyl)-N-(2-(pyridin-4-yl)ethyl)propanamide] are under 3 nM and under 3 nM.
Regarding `N[C@@H](Cc1ccc(Oc2ccnc3[nH]cc(-c4ccccc4)c23)cc1)C(=O)N1CCN(Cc2ccccc2)CC1` [Example 199, (S)-2-amino-1-(4-benzylpiperazin-1-yl)-3-(4-((3-phenyl-1H-pyrrolo[2,3-b]pyridin-4-yl)oxy)phenyl)propan-1-one], the Ki on Rho kinase 1 (ROCK-I) and at Rho kinase 2 (ROCK-II) was under 3 nM throughout.
Take `CN(C(=O)[C@@H](N)Cc1ccc(Oc2ccnc3[nH]ccc23)cc1)C1CCCCC1` [Example 101, (S)-3-(4-((1H-pyrrolo[2,3-b]pyridin-4-yl)oxy)phenyl)-2-amino-N-cyclohexyl-N-methylpropanamide]: the Ki on Rho kinase 1 (ROCK-I) and at Rho kinase 2 (ROCK-II) was 3 to 30 nM in each case.
Turning to `Cc1c[nH]c2nccc(Oc3ccc(C[C@@H](C(=O)NC4CCCCC4)N(C)C)cc3)c12` [Example 184, (S)—N-cyclohexyl-2-(dimethylamino)-3-(4-((3-methyl-1H-pyrrolo[2,3-b]pyridin-4-yl)oxy)phenyl)propanamide], the Ki at Rho kinase 1 (ROCK-I) and at Rho kinase 2 (ROCK-II) was under 3 nM in each case.
